Converted amounts (≈) assume the structure as drawn. Read-outs that look alike come from different tables or passages of the source.
Tests used:
Assay type in all cases: cell-based
[1] = tested on: Mycobacterium tuberculosis (Mtb-GFP; H37Rv pMSP12::GFP); assay: microbe, parasite or virus in culture; details: 168 h, pH 6.8, read-out: Mtb Cho MITC95, cholesterol carbon source, pH 6.8, 7-day growth, GFP fluorescence, lowest concentration inhibiting 95% of growth
[2] = tested on: Mycobacterium tuberculosis (Mtb-GFP; H37Rv pMSP12::GFP); assay: microbe, parasite or virus in culture; details: 168 h, pH 6.8, read-out: Mtb Glu MITC95, glucose carbon source, pH 6.8, 7-day growth, GFP fluorescence, lowest concentration inhibiting 95% of growth
[3] = tested on: mitochondrial protein synthesis in HepG2 cells; assay: Mitochondrial protein synthesis assay (COX-I to SDH-A ratio, In Cell ELISA); details: 4 days, ratio of COX-I to SDH-A levels, read-out: MPS IC50
Protocol: Mitochondrial Protein Synthesis Assay
Inhibition of mitochondrial protein synthesis was assessed in HepG2 cells by comparing the levels of two subunits of oxidative phosphorylation enzyme complexes, subunit I of Complex IV (COX-I) and the 70 kDa subunit of Complex II (SDH-A). COX-I is mitochondrial DNA encoded and SDH-A is nuclear DNA encoded. HepG2 cells were seeded in 96-well collagen coated plates at 8,000 cells per well and exposed to 2-fold serial dilutions of compounds from 100 μM to 6.25 μM. Microtiter plates were incubated for approximately 5 replication cycles (4 days) prior to assessment of protein levels using a kit as described by the manufacturer (ab110217 MitoBiogenesis In Cell ELISA Kit, Abcam, Cambridge, MA). Inhibition of mitochondrial protein synthesis was expressed as a ratio of COX-1 to SDH-A levels.

SMILES | MIC [1] [µM] | MIC [2] [µM] | IC50 ([3]; Homo sapiens, HepG2, 96 h) [µM] | IC50 [3] [µM]
CC(=O)NC[C@H]1CC(c2ccc(-c3ccc(S(=O)(=O)C4(C)CN(C)C4)cc3)c(F)c2)=NO1 [Example 18, N-[[(5R)-3-[4-[4-(1,3-Dimethylazetidin-3-yl)sulfonylphenyl]-3-fluoro-phenyl]-4,5-dihydroisoxazol-5-yl]methyl]acetamide] | 0.39 (≈ 0.179 µg/mL) | 0.39 (≈ 0.179 µg/mL) | 13 | –
O=S1(=O)CCC(F)(c2ccc(C3=NO[C@@H](Cn4ccnn4)C3)cc2F)CC1 [Example 48, 4-Fluoro-4-(2-fluoro-4-{(5R)-5-[(1H-1,2,3-triazol-1-yl)methyl]-4,5-dihydro-1,2-oxazol-3-yl}phenyl)-1λ^6-thiane-1,1-dione] | 6.25 (≈ 2.48 µg/mL) | 6.25 (≈ 2.48 µg/mL) | > 100 | –
CN1CC(C)(S(=O)(=O)c2ccc(-c3c(F)cc(C4=NO[C@@H](Cn5ccnn5)C4)cc3F)cn2)C1 [Example 24, 5-(2,6-Difluoro-4-{(5R)-5-[(1H-1,2,3-triazol-1-yl)methyl]-4,5-dihydro-1,2-oxazol-3-yl}phenyl)-2-(1,3-dimethylazetidine-3-sulfonyl)pyridine] | 3.12 (≈ 1.52 µg/mL) | 3.12 (≈ 1.52 µg/mL) | 76 | –
CN1CC(C)(S(=O)(=O)c2ccc(-c3ccc(C4=NO[C@@H](CNC(=O)OC5CC5)C4)cc3F)cc2)C1 [Example 17, Cyclopropyl N-[[(5R)-3-[4-[4-(1,3-dimethylazetidin-3-yl)sulfonylphenyl]-3-fluoro-phenyl]-4,5-dihydroisoxazol-5-yl]methyl]carbamate] | 0.39 (≈ 0.196 µg/mL) | 0.39 (≈ 0.196 µg/mL) | – | –
CCOC(=O)NC[C@H]1CC(c2cc(F)c(C3(F)CCS(=O)(=O)CC3)c(F)c2)=NO1 [Example 55, Ethyl ({(5R)-3-[3,5-difluoro-4-(4-fluoro-1,1-dioxo-1λ^6-thian-4-yl)phenyl]-4,5-dihydro-1,2-oxazol-5-yl}methyl)carbamate] | 3.12 (≈ 1.36 µg/mL) | 3.12 (≈ 1.36 µg/mL) | > 100 | –
CN1CCC(C)(S(=O)(=O)c2ccc(-c3ccc(C4=NO[C@@H](Cn5ccnn5)C4)cc3F)cc2)C1 (stereo partly drawn) [Example 45, l-({(5R)-3-[4′-(1,3-Dimethylpyrrolidine-3-sulfonyl)-2-fluoro[1,1′-biphenyl]-4-yl]-4,5-dihydro-1,2-oxazol-5-yl}methyl)-1H-1,2,3-triazole] | 0.39 (≈ 0.189 µg/mL) | 0.19 (≈ 0.0919 µg/mL) | 4 | –
CN1CC(Oc2ccc(-c3ccc(C4=NO[C@@H](CO)C4)cc3F)cc2)C1 [Example 35, [(5R)-3-{2-Fluoro-4′-[(1-methylazetidin-3-yl)oxy][1,1′-biphenyl]-4-yl}-4,5-dihydro-1,2-oxazol-5-yl]methanol] | 3.12 (≈ 1.11 µg/mL) | 3.12 (≈ 1.11 µg/mL) | > 50 | –
CN=S1(=O)CCC(F)(c2c(F)cc(C3=NO[C@@H](CNC(C)=O)C3)cc2F)CC1 (stereo partly drawn) [Example 30, N-{[(5R)-3-{3,5-Difluoro-4-[4-fluoro-1-(methylimino)-1-oxo-1λ^6-thian-4-yl]phenyl}-4,5-dihydro-1,2-oxazol-5-yl]methyl}acetamide] | – | – | – | > 100
CN=S1(=O)CCC(F)(c2c(F)cc(C3=NO[C@@H](CNC(=O)OC)C3)cc2F)CC1 (single isomer, unassigned) [Example 9] | – | – | – | > 100
CN=S1(=O)CCC(F)(c2c(F)cc(C3=NO[C@@H](Cn4ccnn4)C3)cc2F)CC1 (single isomer, unassigned) [Example 7] | – | – | – | > 100
N=S1(=O)CCC(F)(c2c(F)cc(C3=NO[C@@H](Cn4ccnn4)C3)cc2F)CC1 (stereo partly drawn) [Example 39, 4-(2,6-Difluoro-4-{(5R)-5-[(1H-1,2,3-triazol-1-yl)methyl]-4,5-dihydro-1,2-oxazol-3-yl}phenyl)-4-fluoro-1-imino-1λ^6-thian-1-one] | – | – | – | > 100
O=S1(=O)CCN(c2c(F)cc(C3=NO[C@@H](Cn4ccnn4)C3)cc2F)CC1 [Example 5, 4-(2,6-Difluoro-4-{(5R)-5-[(1H-1,2,3-triazol-1-yl)methyl]-4,5-dihydro-1,2-oxazol-3-yl}phenyl)-1λ^6-thiomorpholine-1,1-dione] | 3.12 (≈ 1.24 µg/mL) | 3.12 (≈ 1.24 µg/mL) | – | –

Source: patent publication US20260035363A1, “COMPOUNDS AND METHODS OF USE THEREOF AS ANTIBACTERIAL AGENTS” (priority 2019, published 2026)
